{"source": "patent US11208391B2", "about": "“Polymorphs and new path to synthesize Tafamidis” (AZAD PHARMA AG, priority 2018, dated 2021)", "assay": "Pressure resistance of the crystalline form (hydraulic press, then PXRD/DSC)", "format": "physicochemical", "conditions": "pressed 3-5 seconds at 1.5 MPa, Perkin Elmer hydraulic press, 13 mm stamp, material of method 1 (pentane/heptane), compared with non-pressed form", "procedure": "The diffraction measurements were performed at ambient conditions on a PANalytical X'Pert PRO θ-θ diffractometer of 240 mm of radius in reflection geometry, equipped with Cu Kα radiation and a PIXcel detector, operated at 45 kV and 40 mA. Each sample was mounted on a zero-background silicon holder and allowed to spin at 0.25 rev/s during data collection. The measurement angular range was 3.0-40.0° (2θ) with a step size of 0.013°. The scanning speed was 0.0821°/s (40.80 s/step).\nDry samples were pressed at the indicated pressures in a Perkin Elmer hydraulic press using a 13 mm stamp for a time period of 3-5 seconds.\nThe dried filter cake obtained by the above described method 1 was pressed for 3-5 seconds at 1.5 MPa using a Perkin Elmer hydraulic press and 13 mm tableting stamp. The resulting material was subjected to a DSC and a PXRD-experiment. The results are depicted in FIG. 13 (DSC) and FIG. 14 (PXRD). […] This feature renders this polymorph suitable for processing in the course of tableting, especially.", "data": [{"smiles": "CNC[C@H](O)[C@@H](O)[C@H](O)[C@H](O)CO.O=C(O)c1ccc2nc(-c3cc(Cl)cc(Cl)c3)oc2c1", "note": "[crystalline Tafamidis meglumine, 2-(3,5-dichlorophenyl)-1,3-benzoxazole-6-carboxylic acid * (2R,3R,4R,5S)-6-(methyl-amino)-hexane-1,2,3,4,5-pentol]", "values": [{"measurement": "PXRD diffraction pattern / structure of the crystalline form upon pressure treatment", "value": "does not change upon pressure treatment"}, {"measurement": "PXRD diffraction pattern / structure of the crystalline form upon pressure treatment", "setting": "listed as crystalline form", "value": "insensitive to pressure"}]}]}
